Reference: patent publication US20100130736A1, “METHODS OF CREATING AN INDEX” (priority 2008, published 2010)

System: quiescent A431 cells
Experiment: Epic DMR agonist mode (primary profile) in quiescent A431 cells
Type: cell-based, human
From the text: Epic® wavelength interrogation system (Corning Inc., Corning, N.Y.) was used for whole cell sensing. This system consists of a temperature-control unit, an optical detection unit, and an on-board liquid handling unit with robotics. The detection unit is centered on integrated fiber optics, and enables kinetic measures of cellular responses with a time interval of ±15 sec.
For biosensor cellular assays, molecule solutions were made by diluting the stored concentrated solutions with the HBSS (1× Hanks balanced salt solution, plus 20 mM Hepes, pH 7.1), and transferred into a 384 well polypropylene molecule storage plate to prepare a molecule source plate. Both molecule and marker source plates were made separately when a two-step assay was performed. In parallel, the cells were washed twice with the HBSS and maintained in 30 μl of the HBSS to prepare a cell assay plate. Both the cell assay plate and the molecule and marker source plate(s) were then incubated in the hotel of the reader system. After ˜1 hr of incubation the baseline wavelengths of all biosensors in the cell assay microplate were recorded and normalized to zero. Afterwards, a 2 to 10 minute continuous recording was carried out to establish a baseline, and to ensure that the cells reached a steady state. Cellular responses were then triggered by pipetting 10 μl of the marker solutions into the cell assay plate using the on-board liquid handler.
A DMR index was generated for four ligand molecules. Quiescent A431 and proliferating A549 cells were separately exposed to the ligand molecules for about 1 hr to generate their primary profiles, followed by stimulation with each marker at a fixed concentration (as mentioned in FIGS. 7 and 8) for another 1 hr or so to generate secondary profiles of the molecule against the panels of markers in both types of cells. Next, one or more specific DMR parameters were chosen as a readout for plotting the DMR index of the molecule. For the pinacidil DMR response in A549, the amplitude of the N-DMR (i.e., the amplitude 30 min after stimulation) was chosen. […]

EGF: natural agonist for endogenous EGF receptor in A431
EC80 to trigger the DMR signal (fully quiescent A431 cells): ~32 nM | DMR signal triggered (fully quiescent A431 cells, EGF ~32 nM, three phases P-DMR, N-DMR, RP-DMR, FIG. 4): distinct and robust DMR signal | DMR response as a function of dose (quiescent A431 cells, data not shown): dose-dependent response
